Here are results for 9 compounds from article PMC10688702, “The indole motif is essential for the antitrypanosomal activity of N^5-substituted paullones” (PLOS ONE, 2023).

As usually defined, the solubility (thermodynamic) is the concentration in solution at equilibrium with solid. A word on the viability: it is the share of living cells, or the viability signal relative to a control. For orientation: solubility (kinetic) means the concentration staying in solution when a stock, usually in DMSO, is diluted into the medium. Broadly, the EC50 is the midpoint of the concentration-response curve.

Data set [1] in a line: Thermodynamic aqueous solubility, shake-flask method and HPLC-UV. It is filed as physicochemical. The following applies: phosphate-buffered saline, aqueous buffer, thermodynamic from solid, PBS pH 7.4, 25°C, up to 72 h, HPLC-UV, logS of molar solubility [M]. Here is the method: (§1) Phosphate-buffered saline pH 7.4 was prepared according to the European Pharmacopeia 10.4 by dissolving 2.38 g sodium monohydrogen phosphate dodecahydrate, 0.19 g potassium dihydrogen phosphate and 8.0 g sodium chloride in demineralised water (to a total volume of 1000 mL). The pH was adjusted to a value of 7.4 with hydrochloric acid. The buffer was filtered through a 0.45 μm membrane filter (Chromafil® Xtra PES-45/25) before use.
The thermodynamic aqueous solubility was determined by a miniaturised shake-flask method. […] A negative control with the buffer (400 μL) was incubated for every time point and measured likewise. After incubation for 24 h, 48 h and 72 h, the vials were checked for undissolved compound; then the filter plunger was punched into the vial for filtration. […] The calibration curve was obtained from at least three dilutions and five measuring points from a DMSO stock solution of the respective compound.

Data set [2] addresses T1, trypanothione synthetase of L. infantum (LiTryS) (Leishmania infantum, UniProt A4I2Z3). The data set can be described thus: TryS activity screening assay on recombinant LiTryS. The following applies: read-out: LiTryS activity [% at 30 μM]. It counts as biochemical. The gist of the method: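 N-His-tagged TryS from E. coli, purified by IMAC and SEC; end-point reaction with 150 μM ATP, 2 mM Spd, GSH 0.05 mM (TbTryS) or 0.25 mM (LiTryS), enzyme 3*10^−5 (TbTryS) or 2*10^−5 (LiTryS) μmol*min^-1*mL^-1. Stopped after 15 min with BIOMOL GREEN; A650 activity relative to blank-corrected DMSO control.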

For data set [3], the system named is L. infantum amastigotes (intracellular, in J774.A1 macrophages). As to the kind of experiment: Viability assay for L. infantum amastigotes. It counts as cell-based. The following applies: Leishmania infantum, J774.A1, 24 h, read-out: L. infantum amastigote viability [% at 20 μM]. The method, boiled down: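 Luciferase-expressing L. infantum metacyclic promastigotes (MHOM/MA/67/ITMAP263) infected J774.A1 murine macrophages at 1:10 for 24 h at 37 °C, 5% CO2. After compound treatment, a further 24 h incubation followed. Percent amastigote viability, in triplicate, was normalised to host-cell density by a propidium iodide correction factor.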

The nature of data set [4]: Kinetic aqueous solubility by nephelometry. The following applies: phosphate-buffered saline, aqueous buffer, kinetic from dmso stock, PBS pH 7.4, 1% DMSO, 25°C, logS = decadic logarithm of molar solubility [M]. It counts as physicochemical. The procedure: as §1
The kinetic aqueous solubility was determined by nephelometry. The measurements were performed on the NEPHELOstar Plus, with accompanying software Omega 5.11 and MARS 3.20 (BMG LABTECH, Ortenberg, Germany). Generally, 2 dilution series of 1–2 weighed portions of each substance were measured. First, stock solutions of the compounds were prepared in DMSO. A series of dilutions in DMSO were prepared from one stock solution to obtain at least 3 concentrations below and 3 concentrations above the precipitation point in the measured series. The specific concentrations were usually measured as duplicates.
The 96-well plate (Corning UV transparent flat-bottom 96-well plate, Corning Incorporated, Kennenbunk, ME, USA) was inspected for contamination and scratches and measured without samples prior to the solubility measurement of the compounds. 198 μL of phosphate-buffered saline pH 7.4 was placed in a 96 well plate for each well to be measured. 2 μL of a DMSO solution was added and immediately mixed by moving the pipette plunger. This solution either contained no substance—and served as a blank for the measurement (3 wells)—or the respective DMSO dilution of the substance (2–4 wells). The concentration of the solvent DMSO in each measured solution was 1%. The concentration of the compound corresponds to a 1:100 dilution compared to the respective DMSO dilution. The well plate bottom was cleaned with a lint-free cloth and compressed air and inspected for impurities before measurement. After shaking at 500 rpm for 10 s (double orbital), the measurement was carried out in the nephelometer with the laser intensity set to 80% and beam focus of 2.5 mm at a temperature of 25°C.
The obtained measuring points, relative nephelometric units (RNU) per compound concentration, were used to model two straight lines: one straight line with constant low readings and slope → 0 characterises the concentration range where no precipitation has taken place yet; The other straight line has a steep slope and increase of the RNU per concentration and characterises the concentrations at which precipitation takes place in the respective sample vessels.
The evaluation was carried out by calculating the two straight lines and their point of intersection. Outliers and values in a saturation range for the kick-off curve (usually >800 kRNU) were not used to create the straight lines and are listed separately in the evaluation file. […] The x-value of the intersection of the two straight lines represents the kinetic solubility. The results of two dilution series are additionally indicated as range (in brackets). For measurements of 3 or more series, a mean value with standard deviation is provided. The logS value describes the decadic logarithm of the molar solubility: logS (molar solubility [M]).

Data set [5] deals with T1, trypanothione synthetase of L. infantum (LiTryS). Conditions: Fig 3, known paullones; cited from earlier work.
For data set [6], the system named is bloodstream form of T. b. brucei strain 427. More on the design: method as in PMID 27070550. The following applies: displayed for comparison, read-out: T. b. brucei (BS) [EC50; cited from earlier work.
For a further data set, the system named is LiTryS. More on the design: method as in ref 25, 26 = [25]; PMID 27070550; doi:10.1371/journal.pntd.0004617; 25 Benítez D , Medeiros A , Fiestas L , Panozzo-Zenere EA , Maiwald F , Prousis KC , et al . Identification of novel chemical scaffolds inhibiting trypanothione synthetase from pathogenic trypanosomat || [26]; PMID 32588679; doi:10.1080/14756366.2020.1780227; 26 Medeiros A , Benítez D , Korn RS , Ferreira VC , Barrera E , Carrión F , et al . Mechanistic and biological characterisation of novel N 5 -substituted paullones targeting the biosynthesis of trypan. The following applies: versus substrates Spd, Gsp, ATP, GSH; cited from earlier work.

Data set [7] has as its system trypanothione synthetase of T. b. brucei (TbTryS). More on the design: method as in PMID 27070550. The following applies: cited from earlier work.
Another data set relates to TryS. More on the design: method as in Torrie et al. 18. The following applies: ref Torrie et al. 18; cited from earlier work.
The subject of data set [8] is Crithidia fasciculata TryS (CfTryS). More on the design: method as in ref 24–26 = [24]; 24 Stuhlmann F, Jäger T, Flohé L, Schinzer D, inventors. N 5 -substituted benzo[2,3]azepino[4,5- b ]indol-6-ones for treating tropical diseases. European Patent Office patent EP 1 757 607 A1. 2007 Feb || [25]; PMID 27070550; doi:10.1371/journal.pntd.0004617; 25 Benítez D , Medeiros A , Fiestas L , Panozzo-Zenere EA , Maiwald F , Prousis KC , et al . Identification of novel chemical scaffolds inhibiting trypanothione synthetase from pathogenic trypanosomat || [26]; PMID 32588679; doi:10.1080/14756366.2020.1780227; 26 Medeiros A , Benítez D , Korn RS , Ferreira VC , Barrera E , Carrión F , et al . Mechanistic and biological characterisation of novel N 5 -substituted paullones targeting the biosynthesis of trypan. Conditions: cited from earlier work.

T1 sequence (A4I2Z3 entry or part of it): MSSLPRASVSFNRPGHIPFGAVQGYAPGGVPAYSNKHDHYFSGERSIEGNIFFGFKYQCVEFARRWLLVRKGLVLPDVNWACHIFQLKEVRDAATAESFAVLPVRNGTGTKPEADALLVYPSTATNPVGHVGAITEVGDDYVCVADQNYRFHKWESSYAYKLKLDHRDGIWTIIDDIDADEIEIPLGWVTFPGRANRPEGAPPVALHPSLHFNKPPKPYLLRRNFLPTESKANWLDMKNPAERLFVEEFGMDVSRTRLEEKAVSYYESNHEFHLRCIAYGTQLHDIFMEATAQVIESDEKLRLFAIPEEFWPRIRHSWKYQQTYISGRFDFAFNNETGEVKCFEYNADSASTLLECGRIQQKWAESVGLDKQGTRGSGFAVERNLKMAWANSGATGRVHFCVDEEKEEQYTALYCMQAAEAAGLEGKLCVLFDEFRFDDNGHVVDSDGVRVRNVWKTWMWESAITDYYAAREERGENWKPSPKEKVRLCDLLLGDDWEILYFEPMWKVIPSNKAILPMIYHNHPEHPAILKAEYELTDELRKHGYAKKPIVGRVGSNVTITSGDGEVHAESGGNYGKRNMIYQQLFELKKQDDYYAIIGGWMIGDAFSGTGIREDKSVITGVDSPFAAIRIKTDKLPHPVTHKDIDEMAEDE

Consider `Cl.Cl.O=C(CN1C(=O)CCCc2ccccc21)NCCN1CCNCC1` [2o, 2-(2-Oxo-2,3,4,5-tetrahydro-1H-benzo[b]azepin-1-yl)-N-[2-(piperazin-1-yl)ethyl]acetamide dihydrochloride], for which the thermodynamic solubility at 72 h in [1] is > 0.248 M. Besides, in data set [2], the activity at 30 µM was 98.8 ± 18.7%. Besides, in [3], the viability at 20 µM was 98.4 ± 11.8%. In data set [4], the solubility (kinetic) at 10 s is > 0.001 M.
On to `O=C(CN1C(=O)CCCc2ccccc21)N1CCCC1` [2j, 1-[2-Oxo-2-(pyrrolidin-1-yl)ethyl]-1,3,4,5-tetrahydro-2H-benzo[b]-azepin-2-one], for which the solubility (thermodynamic) at 72 h in [1] was > 0.049 M. Besides, the activity at 30 µM in data set [2] came out at 100 ± 6.6%. The kinetic solubility at 10 s in [4] is > 0.00398 M.
On to `NCCNC(=O)CN1C(=O)Cc2c([nH]c3ccc(Br)cc23)-c2ccc(Cl)cc21` [1d], for which the IC50 in data set [5] is 0.3 µM.
Turning to `CNCCNC(=O)CN1C(=O)Cc2c([nH]c3ccc(Br)cc23)-c2ccc(Cl)cc21` [1c], the EC50 in [6] is 4.3 ± 0.7 µM. Also, the “inhibition mechanism on LiTryS” value with LiTryS is “competitive to Spd and Gsp, and uncompetitive to ATP and GSH”. Further, the “TbTryS activity [% at 30 μM]” value in [7] (30 μM, displayed for comparison) is on record as 41.0 ± 6.0%. Also, the IC50 in data set [7] (used as inhibition control, read-out: concentration that inhibited 50% TryS activity (TbTryS)) is 30 µM.
In the case of `CON=C1CCC(=O)N(CC(=O)N2CCCC2)c2ccccc21` (mixture of isomers) [5c, (E/Z)-5-(Methoxyimino)-1-[2-oxo-2-(pyrrolidin-1-yl)ethyl]-1,3,4,5-tetrahydro-2H-benzo[b]azepin-2-one], the thermodynamic solubility at 72 h in data set [1] is 0.0263 M. In data set [2], the activity at 30 µM worked out at 86.9 ± 3.6%. Besides, in data set [4], the kinetic solubility at 10 s is > 0.00398 M.
Take `CN1CCN(CCCN2c3ccccc3Sc3ccc(Cl)cc32)CC1` [prochlorperazine]: in the data set with TryS, the “mode of TryS inhibition” value is recorded as “Spd competitive behaviour”.
For the compound `CC1(C)CCc2ccccc2N(CC(=O)NCCN2CCNCC2)C1=O.Cl.Cl` [3d, 2-(3,3-Dimethyl-2-oxo-2,3,4,5-tetrahydro-1H-benzo[b]azepin-1-yl)-N-[2-(piperazin-1-yl)ethyl]acetamide dihydrochloride], the thermodynamic solubility at 72 h in [1] was > 0.114 M. Further, the activity at 30 µM in data set [2] was 100 ± 5.1%. The viability at 20 µM in data set [3] amounted to 78.1 ± 14.4%. The kinetic solubility at 10 s in [4] was > 0.002 M.
With `CNCCNC(=O)CN1C(=O)Cc2c([nH]c3ccc(Br)cc23)-c2ccccc21` [1b], in data set [8], the “CfTryS inhibition at 10 μM compound concentration” value is given as 92%.
`Cl.Cl.O=C(CN1C(=O)Cc2ccccc2-c2ccccc21)NCCN1CCNCC1` [4d, 2-(6-Oxo-6,7-dihydro-5H-dibenzo[b,d]azepin-5-yl)-N-[2-(piperazin-1-yl)ethyl]acetamide dihydrochloride]: the thermodynamic solubility at 72 h in data set [1] was > 0.0562 M. Also, in [2], the activity at 30 µM amounted to 99.5 ± 3.1%. Besides, the viability at 20 µM in data set [3] turned out to be 89.5 ± 2.8%. Further, the kinetic solubility at 10 s in data set [4] was > 0.0002 M.
